Data set [1] is described as follows: Prodrug activation in PBS at pH 7.4 assessed as retention time of GSH bis-adduct formation at 10 uM in presence of 1 mM GSH by LC-MS analysis. The note with it: buffer, pH 7.4, 10 µM.
Data set [2] in a line: Prodrug activation in PBS at pH 7.4 assessed as retention time of CPT at 10 uM in presence of 1 mM GSH by LC-MS analysis. To be noted: buffer, pH 7.4, 10 µM.
The nature of data set [3]: Stability of compound in mouse plasma assessed as prodrug remaining at 100 uM measured upto 12 hrs by HPLC analysis. In kind it is ADME, cell-free.
Data set [4] is described as follows: Prodrug activation in PBS at pH 7.4 assessed as CPT release at 10 uM measured within 30 mins by fluorescence microscopy. To be noted: buffer, pH 7.4, 0.5 h.
A short description of data set [5]: Prodrug activation in PBS at pH 7.4 assessed as retention time of prodrug at 10 uM in presence of 1 mM GSH by LC-MS analysis. The note with it: buffer, pH 7.4, 10 µM.
Data set [6] is described as follows: Prodrug activation in human HepG2 cells assessed as GSH bis-adduct formation by measuring green fluorescence at 10 uM incubated upto 30 mins by inverted fluorescence microscopy. In kind it is cell-based. The note with it: hepg2, 0.5 h.
Data set [7] is described as follows: Prodrug activation in PBS at pH 7.4 assessed as retention time of GSH mono-adduct formation at 10 uM in presence of 1 mM GSH by LC-MS analysis. The note with it: buffer, pH 7.4, 10 µM.
A short description of data set [8]: Prodrug activation in human HepG2 cells assessed as retention time of GSH bis-adduct formation at 10 uM treated for 1 hr in presence of 1 mM GSH by LC-MS analysis. In kind it is cell-based. The note with it: hepg2, 1 h.
The nature of data set [9]: Prodrug activation in PBS at pH 7.4 assessed as GSH bis-adduct formation at 10 uM in presence of 1 mM GSH measured 10 mins by LC-MS analysis. The note with it: buffer, pH 7.4, 10 min.
Data set [10] is described as follows: Prodrug activation in human HepG2 cells assessed as retention time of CPT by LC-MS analysis. In kind it is cell-based.
Data set [11] is described as follows: Prodrug activation in PBS at pH 7.4 assessed as rate of CPT release at 10 uM measured within 10 mins by fluorescence microscopy. The note with it: buffer, pH 7.4, 10 min.
Data set [12] can be described thus: Prodrug activation in PBS at pH 7.4 assessed as CPT release at 10 uM in presence of 1 mM GSH measured after 5 mins by LC-MS analysis. The note with it: buffer, pH 7.4, 5 min.
Data set [13] in a line: Prodrug activation in human HepG2 cells assessed as retention time of prodrug by LC-MS analysis. In kind it is cell-based.
A short description of data set [14]: Prodrug activation in PBS at pH 7.4 assessed as GSH mono-adduct formation at 10 uM in presence of 1 mM GSH measured after 5 mins by LC-MS analysis. To be noted: buffer, pH 7.4, 5 min.
Data set [15] is described as follows: Prodrug activation in human HepG2 cells assessed as CPT release by measuring blue fluorescence at 10 uM incubated upto 30 mins by inverted fluorescence microscopy. To be noted: hepg2, 0.5 h. In kind it is cell-based.
Data set [16] in a line: Prodrug activation in PBS at pH 7.4 assessed as GSH bis-adduct at 10 uM incubated upto 60 mins in presence of 1 mM GSH by LC-MS analysis. To be noted: buffer, pH 7.4, 1 h.
Data set [17] is described as follows: Prodrug activation in human HepG2 cells assessed as NO release by measuring red fluorescence at 20 uM treated for 15 mins by dRB-OPD staining based fluorescence microscopy. The note with it: hepg2, 0.25 h. Type of data set: cell-based.
Data set [18] can be described thus: Prodrug activation in PBS assessed as amount of GSH-activated NO release at 17 uM in presence of 1 mM GSH by Griess assay. To be noted: buffer. For orientation: Nitrite, measured by Griess reagent, commonly stands in for NO production.
Data set [19] is described as follows: Prodrug activation in PBS assessed as increase in GSH-activated NO release at 10 uM in presence of 1 mM GSH measured for 40 mins by Griess assay. To be noted: buffer.
The nature of data set [20]: Prodrug activation in PBS at pH 6.5 to 9.0 at 10 uM incubated for 60 mins in presence of 1 mM GSH by fluorescence based assay. To be noted: buffer, pH 6.5, 1 h.
Data set [21] has as its system BV-2. As to the kind of experiment: Cytotoxicity against mouse BV2 cells assessed as cell survival at less than 4 uM incubated for 24 hrs by MTT assay. In kind it is toxicity, cell-based. To be noted: bv-2, 24 h. Background: Formazan colour is commonly taken as a measure of viable cells.
A short description of data set [22]: Prodrug activation in PBS at pH 7.4 assessed as GSH-induced NO release by measuring increase in fluorescence at 10 uM incubated for 60 mins in presence of 1 mM GSH by fluorescence based assay. To be noted: buffer, pH 7.4, 1 h.
The next data set concerns Astrocyte. As to the kind of experiment: Cytotoxicity against astrocyte cells assessed as cell survival upto 2 uM incubated for 24 hrs by MTT assay. Type of data set: toxicity, cell-based.
Data set [23] in a line: Prodrug activation in zebrafish assessed as green fluorescence signal at 20 uM incubated for 20 mins by fluorescence microscopy. Set-up: species or system Danio rerio.
Data set [24] can be described thus: Prodrug activation in zebrafish assessed as NO release by measuring red fluorescence signal at 20 uM incubated for 20 mins by dRB-OPD staining based fluorescence microscopy. On the set-up: species or system Danio rerio.
Data set [25] is described as follows: Prodrug activation in PBS at pH 7.4 assessed as GSH-induced NO release by measuring increase in fluorescence at 10 uM in presence of 1 mM GSH. The note with it: buffer, pH 7.4, 10 µM.
A short description of data set [26]: Prodrug activation in PBS at pH 7.4 assessed as change in fluorescence signal at 10 uM incubated for 60 mins in presence of 1 mM homocysteine by fluorescence based assay. To be noted: buffer, pH 7.4, 1 h.
Data set [27] is described as follows: Prodrug activation in PBS at pH 7.4 assessed as change in fluorescence signal at 10 uM incubated for 60 mins in presence of 1 mM cysteine by fluorescence based assay. To be noted: buffer, pH 7.4, 1 h.
A short description of data set [28]: Prodrug activation in human HepG2 cells assessed as bis-thiol adduct by measuring green fluorescence at 20 uM treated for 15 mins by fluorescence microscopy. In kind it is cell-based. To be noted: hepg2, 0.25 h.
A short description of data set [29]: Drug uptake in mouse brain assessed as penetration depth at 1 mM treated for 2 hrs by two-photon based fluorescence microscopy. Type of data set: ADME, tissue-based. To be noted: in vivo, 1000 µM.
Data set [30] relates to BV-2. As to the kind of experiment: Neuroprotective activity against OGD-induced mouse BV2 cells assessed as morphological change at 1 to 4 uM incubated for 4 hrs by fluorescence microscopy. In kind it is functional, cell-based. To be noted: dose 1-4 µM.
Data set [31] is described as follows: Prodrug activation in PBS at pH 7.4 assessed as decrease in compound at 10 uM incubated upto 60 mins in presence of 1 mM GSH by LC-MS analysis. To be noted: buffer, pH 7.4, 1 h.
The subject of data set [32] is BV-2. As to the kind of experiment: Cytotoxicity against mouse BV-2 cells assessed as cell survival upto 2 uM incubated for 24 hrs by MTT assay. In kind it is toxicity, cell-based. To be noted: bv-2, 24 h.
The nature of data set [33]: Drug uptake in zebrafish embryo assessed as penetration depth at 20 uM treated for 20 mins by two-photon based fluorescence microscopy. In kind it is ADME, Danio rerio. The note with it: in vivo.
Data set [34] has as its system BV-2. As to the kind of experiment: Neuroprotective activity against OGD-induced mouse BV2 cells assessed as increase in cell viability at 2 to 4 uM incubated for 4 hrs followed by reoxygenation by MTT assay. Type of data set: functional, cell-based. To be noted: dose 2-4 µM.

Calls of active or inactive are those of the source. No cut-off for these calls is given here. Where only a bound is given, the exact number is not on record here.

Take `C=C(COC(=O)O[C@]1(CC)C(=O)OCc2c1cc1n(c2=O)Cc2cc3ccccc3nc2-1)C(=O)c1ccc2cc(N(C)C)ccc2c1`: the Retention_time in data set [1] is recorded as 5.1 min; in [2], 10.2 min; in data set [5] it was 28.9 min; in [7], 13.5 min; in [8], 5.1 min; in [10], 10.2 min. Also, the Retention_time in data set [13] amounted to 28.9 min. Also, the Stability in data set [3] is recorded as greater than 60%. In addition, the Activity entry in data set [4] is “Active”; in data set [9], “Active”; in [11], greater than 90%; in data set [12], “Active”; in data set [14], “Active”. The Drug metabolism entry in [6] and in [15] was “Metabolite_Detected” each time.
For `C=C(CO/N=[N+](/[O-])N1CCCC1)C(=O)c1ccc2cc(N(C)C)ccc2c1`, the Activity result in data set [16] is “Active”; in data set [18], 85%; in [19], “Active”; in data set [20] it was “Active”; in the data set on BV-2 [21] it was “Active”; in data set [22], “Active”. For the same compound, the Activity entry in the data set on Astrocyte is listed as “Non-Toxic”; in data set [25], “Active”; in data set [26], “Active”; in data set [27] it was “Active”; in [31] it was “Active”; in the data set on BV-2 [32] it was “Non-Toxic”. Besides, the Drug metabolism result in data set [17], in data set [23], in data set [24], in data set [28], in data set [29] and in [33] was “Metabolite_Detected” in each case. Also, the Stability in data set [3] is given as greater than 60%. The result in the data set with BV-2 [30] and in the data set with BV-2 [34] was Active.

The values above are taken from ChEMBL document CHEMBL5154867, “Baylis-Hillman Adducts as a Versatile Module for Constructing Fluorogenic Release System” (J Med Chem, 2022).
